From patent publication EP1105395B1, “PHOTOCYCLIZED RAPAMYCINS” (priority 1998, dated 2000)
≈ marks a conversion by molar mass, not a printed value.

How the values were obtained:
Type in all cases: cell-based
[1] = tested on: SW620 (colon); experiment: Antineoplastic activity, tumor cell growth inhibition (sulforhodamine B); conditions: SW620 cells, 48 hours, inhibition of growth
Description: (§1) Antineoplastic activity for the compounds of this invention was established by evaluating the antineoplastic activity of a representative compound of this invention (Compound I) against six tumor cell lines in vitro. Briefly, tumor cells from six cell lines were placed in wells of a 96 well microtiter plate. The following tumor cell lines were used: A2780S (ovarian), A2780DDP (ovarian - resistant to cis-platin), A431 (vulva epidermoid origin), SW620 (colon), SKBR3 (breast), and MDA-MB-435 (breast). The tumors cells were grown in the presence of serial dilutions of the compound to be evaluated for 48 hours, and cell growth determined using a colorimetric procedure (sulforhrodamine B). The inhibition of growth was calculated compared to the number of cells at the time of test compound addition. Results are expressed as an IC50 (µg/ml). […] In particular, the compounds of this invention are useful against solid tumors, including sarcomas and carcinomas; and more particularly against astrocytomas, prostate cancer, breast cancer, colon cancer, small cell lung cancer, and ovarian cancer; and adult T-cell leukemia/lymphoma.

[2] = tested on: SKBR3 (breast); experiment: as above; conditions: SKBR3 cells, 48 hours, inhibition of growth
Description: as §1

[3] = tested on: A431 (vulva epidermoid origin); experiment: as above; conditions: A431 cells, 48 hours, inhibition of growth
Description: as §1

[4] = tested on: A2780DDP (ovarian - resistant to cis-platin); experiment: as above; conditions: A2780DDP cells, 48 hours, inhibition of growth
Description: as §1

[5] = tested on: A2780S (ovarian); experiment: as above; conditions: A2780S cells, 48 hours, inhibition of growth
Description: as §1

[6] = tested on: MDA-MB-435 (breast); experiment: as above; conditions: MDA-MB-435 cells, 48 hours, inhibition of growth
Description: as §1

[7] = tested on: Aspergillus fumigatus; experiment: Antifungal activity, microtiter broth dilution MIC; conditions: Aspergillus fumigatus ID ATCC 26933; 35 °C, 24-48 hours
Description: (§2) Antifungal activity for the compounds of this invention was established by evaluating a representative compound of this invention (Compound I) against several strains of fungi. Briefly the following procedure was used to evaluate such activity. A 96 U-bottom microtiter plate was filled (50 µl/well) with RPMI 1640. The compounds to be evaluated were placed in appropriate wells, and serial diluted in successive wells to provide 11 dilutions. The concentrations ranged from 64 through 0.06 µg/ml. An adjusted inoculum of fungi (50 µl) was added to each well and the plates were incubated at 35 °C for 24-48 hours. […]

[8] = tested on: Candida zeylanoided; experiment: Antifungal activity, microtiter broth dilution MIC; conditions: Candida zeylanoided ID 94-15; 35 °C, 24-48 hours
Description: as §2

[9] = tested on: Saccharomyces cerevisiae; experiment: Antifungal activity, microtiter broth dilution MIC; conditions: Saccharomyces cerevisiae ID ATCC 2601; 35 °C, 24-48 hours
Description: as §2

[10] = tested on: Candida albicans; experiment: Antifungal activity, microtiter broth dilution MIC; conditions: 35 °C, 24-48 hours
Description: as §2

[11] = tested on: Candida parapsilosis; experiment: Antifungal activity, microtiter broth dilution MIC; conditions: 35 °C, 24-48 hours
Description: as §2

[12] = tested on: Candida lusitaniae; experiment: Antifungal activity, microtiter broth dilution MIC; conditions: Candida lusitaniae ID 94-3; 35 °C, 24-48 hours
Description: as §2

[13] = tested on: Candida tropicalis; experiment: Antifungal activity, microtiter broth dilution MIC; conditions: 35 °C, 24-48 hours
Description: as §2

[14] = tested on: Aspergillus niger; experiment: Antifungal activity, microtiter broth dilution MIC; conditions: Aspergillus niger ID S-430; 35 °C, 24-48 hours
Description: as §2

[15] = tested on: Cryptococcus neoformans; experiment: Antifungal activity, microtiter broth dilution MIC; conditions: Cryptococcus neoformans ID ATCC 90112; 35 °C, 24-48 hours
Description: as §2

[16] = tested on: Candida glabrata; experiment: Antifungal activity, microtiter broth dilution MIC; conditions: Candida glabrata ID ATCC 90030; 35 °C, 24-48 hours
Description: as §2

[17] = tested on: Candida rugosa; experiment: Antifungal activity, microtiter broth dilution MIC; conditions: Candida rugosa ID 94-10; 35 °C, 24-48 hours
Description: as §2

[18] = tested on: Filobasidiella neoformans; experiment: Antifungal activity, microtiter broth dilution MIC; conditions: Filobasidiella neoformans ID ATCC 7472; 35 °C, 24-48 hours
Description: as §2

[19] = tested on: Aspergillus flavus; experiment: Antifungal activity, microtiter broth dilution MIC; conditions: Aspergillus flavus ID ATCC 12963; 35 °C, 24-48 hours
Description: as §2

[20] = tested on: Candida pseudotropicalis; experiment: Antifungal activity, microtiter broth dilution MIC; conditions: Candida pseudotropicalis ID ATCC 28838; 35 °C, 24-48 hours
Description: as §2

[21] = tested on: Candida krussii; experiment: Antifungal activity, microtiter broth dilution MIC; conditions: Candida krussii ID 94-2; 35 °C, 24-48 hours
Description: as §2

[22] = Candida parapsilosis ID ATCC 90018

Compound | MIC [7] | MIC [8] | MIC [9] | MIC ([10]; Candida albicans ID 94-1) | MIC ([10]; Candida albicans ID 1063) | MIC ([10]; Candida albicans ID 1117) | MIC ([10]; Candida albicans ID ATCC 90028) | MIC ([10]; Candida albicans ID C-83) | MIC ([11]; Candida parapsilosis ID 94-8) | MIC ([11]; Candida parapsilosis ID 94-9) | MIC [11, 22] | MIC [12] | MIC ([13]; Candida tropicalis ID 94-13) | MIC ([13]; Candida tropicalis ID 94-14) | MIC [14] | MIC [15] | MIC [16] | MIC [17] | MIC [18] | MIC [19] | also measured
CO[C@H]1C[C@@H]2CC[C@@H](C)[C@@](O)(O2)[C@]2(O)C(=O)N3[C@@H](CCC[C@@H]32)C(=O)O[C@H]([C@H](C)C[C@@H]2CC[C@@H](O)[C@H](OC)C2)CC(=O)[C@H](C)/C=C(\C)[C@@H](O)[C@@H](OC)C(=O)[C@H](C)C[C@H](C)/C=C/C=C/C=C/1C [Compound I, (1S, 2R, 3R, 6S, 8S, 9E, 11E, 13E, 15S, 17R, 19R, 20R, 21E, 23R, 26S, 29S, 33R)-1,2, 30-Trihydroxy-26-[(1R)-2-[(1S, 3R, 4R)-4-hydroxy-3-methoxycyclohexyl]-1-methylethyl]-8, 19-dimethoxy-3,9,15, 17, 21, 23-hexamethyl-27, 36-dioxa-35-azatetracyclo[27.4.2.1.[2, 6].0 [33, 35]] hexatriaconta-9, 11, 13, 21-tetraene-18, 24, 28, 34-tetrone] | ≥64 µg/mL | 8 µg/mL (≈ 8.75 µM) | 8 µg/mL (≈ 8.75 µM) | 16 µg/mL (≈ 17.5 µM) | 16 µg/mL (≈ 17.5 µM) | 32 µg/mL (≈ 35 µM) | 16 µg/mL (≈ 17.5 µM) | ≥64 µg/mL | 8 µg/mL (≈ 8.75 µM) | 8 µg/mL (≈ 8.75 µM) | 8 µg/mL (≈ 8.75 µM) | 4 µg/mL (≈ 4.38 µM) | 16 µg/mL (≈ 17.5 µM) | 8 µg/mL (≈ 8.75 µM) | ≥64 µg/mL | 8 µg/mL (≈ 8.75 µM) | 8 µg/mL (≈ 8.75 µM) | 16 µg/mL (≈ 17.5 µM) | ≥64 µg/mL | ≥64 µg/mL | IC50 [1]: 24.84 µg/mL (≈ 27.2 µM); IC50 [2]: 7.029 µg/mL (≈ 7.69 µM); IC50 [3]: 20.46 µg/mL (≈ 22.4 µM); IC50 [4]: 6.51 µg/mL (≈ 7.12 µM); IC50 [5]: 8.756 µg/mL (≈ 9.58 µM); IC50 [6]: 27.28 µg/mL (≈ 29.8 µM); MIC [20]: 4 µg/mL (≈ 4.38 µM)
C[C@@H]1[C@H](O)[C@@H](C)/C=C/C=C/CC/C=C/C=C/C=C/C=C/C(O[C@H]2O[C@H](C)[C@@H](O)[C@H](N)[C@@H]2O)CC2O[C@](O)(CC(O)C(O)CCC(O)CC(O)CC(O)CC(=O)O[C@H]1C)CC(O)C2C(=O)O (stereo partly shown) [Nystatin] | 1 µg/mL (≈ 1.08 µM) | 1 µg/mL (≈ 1.08 µM) | 2 µg/mL (≈ 2.16 µM) | 2.0 µg/mL (≈ 2.16 µM) | 2 µg/mL (≈ 2.16 µM) | 1 µg/mL (≈ 1.08 µM) | 1 µg/mL (≈ 1.08 µM) | 2 µg/mL (≈ 2.16 µM) | 1 µg/mL (≈ 1.08 µM) | 1 µg/mL (≈ 1.08 µM) | 1 µg/mL (≈ 1.08 µM) | 1 µg/mL (≈ 1.08 µM) | 1 µg/mL (≈ 1.08 µM) | 2 µg/mL (≈ 2.16 µM) | 4 µg/mL (≈ 4.32 µM) | 0.5 µg/mL (≈ 0.54 µM) | 1 µg/mL (≈ 1.08 µM) | 2 µg/mL (≈ 2.16 µM) | 0.5 µg/mL (≈ 0.54 µM) | ≥16 µg/mL | MIC [21]: 2 µg/mL (≈ 2.16 µM); MIC [20]: 1 µg/mL (≈ 1.08 µM)
